In patent publication US7863465B2, “Antifungal agents” (Merck Sharp & Dohme Corp., priority 2006, dated 2011):
Where a name gives a salt, the structure may show the parent alone.

Target: T1, glucan synthase (GS) prepared from Candida albicans MY1055 (Candida albicans, UniProt O13428)
T1 construct: Extraction of GS activity from membranes was performed at a protein concentration of 5 mg/mL in extraction buffer; endogenous in cells; host or cells: Candida albicans MY1055 (membranes, detergent extract, product entrapment)
T1 sequence (O13428 1-1897): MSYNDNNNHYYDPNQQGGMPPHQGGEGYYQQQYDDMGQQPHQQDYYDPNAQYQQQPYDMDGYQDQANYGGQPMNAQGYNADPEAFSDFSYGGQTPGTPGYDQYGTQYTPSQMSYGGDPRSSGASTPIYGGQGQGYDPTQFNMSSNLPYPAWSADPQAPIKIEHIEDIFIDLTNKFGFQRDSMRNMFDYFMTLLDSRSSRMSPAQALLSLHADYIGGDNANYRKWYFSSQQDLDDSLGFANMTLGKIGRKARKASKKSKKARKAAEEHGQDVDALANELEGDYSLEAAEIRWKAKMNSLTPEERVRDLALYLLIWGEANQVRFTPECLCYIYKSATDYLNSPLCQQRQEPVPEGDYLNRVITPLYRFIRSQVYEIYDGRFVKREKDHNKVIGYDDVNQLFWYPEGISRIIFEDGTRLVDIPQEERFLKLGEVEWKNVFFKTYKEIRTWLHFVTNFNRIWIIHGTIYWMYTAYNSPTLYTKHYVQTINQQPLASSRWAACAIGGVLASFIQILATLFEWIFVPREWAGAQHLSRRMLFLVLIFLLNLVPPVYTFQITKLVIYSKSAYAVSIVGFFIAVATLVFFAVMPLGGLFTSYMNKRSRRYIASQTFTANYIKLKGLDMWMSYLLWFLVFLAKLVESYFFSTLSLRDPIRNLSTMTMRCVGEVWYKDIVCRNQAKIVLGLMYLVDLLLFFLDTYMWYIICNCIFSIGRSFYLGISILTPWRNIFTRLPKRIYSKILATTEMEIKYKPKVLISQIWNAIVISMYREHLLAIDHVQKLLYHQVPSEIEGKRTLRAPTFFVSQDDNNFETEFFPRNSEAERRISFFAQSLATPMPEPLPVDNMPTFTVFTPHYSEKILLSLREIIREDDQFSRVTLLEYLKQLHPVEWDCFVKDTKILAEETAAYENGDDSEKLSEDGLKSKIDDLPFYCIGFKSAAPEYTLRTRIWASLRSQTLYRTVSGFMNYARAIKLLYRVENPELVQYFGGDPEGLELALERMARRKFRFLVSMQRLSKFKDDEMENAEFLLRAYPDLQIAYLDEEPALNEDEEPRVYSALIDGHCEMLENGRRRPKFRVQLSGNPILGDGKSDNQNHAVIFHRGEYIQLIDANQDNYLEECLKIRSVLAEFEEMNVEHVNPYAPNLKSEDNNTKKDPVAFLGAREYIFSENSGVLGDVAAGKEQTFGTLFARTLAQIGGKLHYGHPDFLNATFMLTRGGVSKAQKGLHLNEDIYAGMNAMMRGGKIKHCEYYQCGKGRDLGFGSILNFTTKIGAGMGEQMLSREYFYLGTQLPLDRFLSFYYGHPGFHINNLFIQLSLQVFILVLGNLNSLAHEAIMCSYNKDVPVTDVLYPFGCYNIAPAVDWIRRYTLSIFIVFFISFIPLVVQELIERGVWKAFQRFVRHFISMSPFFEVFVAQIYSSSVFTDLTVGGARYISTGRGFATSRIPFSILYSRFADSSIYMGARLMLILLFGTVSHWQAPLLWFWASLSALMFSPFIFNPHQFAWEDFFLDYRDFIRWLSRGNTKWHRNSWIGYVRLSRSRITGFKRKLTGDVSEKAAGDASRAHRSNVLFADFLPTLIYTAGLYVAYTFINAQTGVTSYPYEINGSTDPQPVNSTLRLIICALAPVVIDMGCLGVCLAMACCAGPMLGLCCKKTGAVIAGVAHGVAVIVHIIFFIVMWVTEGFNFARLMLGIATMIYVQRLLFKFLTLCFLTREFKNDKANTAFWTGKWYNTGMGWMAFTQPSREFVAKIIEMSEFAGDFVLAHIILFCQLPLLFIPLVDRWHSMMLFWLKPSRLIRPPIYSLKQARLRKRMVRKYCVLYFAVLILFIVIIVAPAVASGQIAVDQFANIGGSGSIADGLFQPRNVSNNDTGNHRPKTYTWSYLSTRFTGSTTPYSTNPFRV
T1 sequence (O42825 whole entry partner): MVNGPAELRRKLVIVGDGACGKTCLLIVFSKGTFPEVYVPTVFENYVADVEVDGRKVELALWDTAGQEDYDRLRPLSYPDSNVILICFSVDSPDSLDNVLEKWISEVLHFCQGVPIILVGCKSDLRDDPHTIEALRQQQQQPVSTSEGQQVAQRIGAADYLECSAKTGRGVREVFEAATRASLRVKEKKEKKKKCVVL
Experiment: Glucan synthase inhibition (polymerization assay, 96-well, 3H-UDPG incorporation)
Assay type: biochemical
Details: glucan synthase from C. albicans MY1055
Procedure: The in vitro evaluation of glucan synthase inhibitory activity of compounds was measured in a polymerization assay in 96-well format. Each well contained 100 μL of ^3H-UDPG at 0.5 mM (6000 to 8000 dpm/nmol), 50 mM HEPES pH 7.5 (Sigma), 10% w/v glycerol (Sigma), 1.5 mg/mL bovine serum albumin (Sigma A 9647. Lot 44H0190), 25 mM KF (Fisher), 1 mM EDTA (Gibco Ultrapure), 25 μM GTP-γ-S, enzyme sufficient to give 3 to 6 nmoles incorporation during the 60 min incubation at 22° C., and test compound added from wells in 3-fold serial dilutions in 100% DMSO (1 μL/well). The reaction was stopped by the addition of 100 μL of 20% trichloroacetic acid. Plates were chilled for a minimum of 10 min, and precipitated glucan collected by filtration on GF/C plates (Packard Unifilter®-96), washed with 5 cycles of water (about 1 mL/well each cycle) using a Packard Filtermate Harvester. 40 μL/well scintillation fluid (Packard Ultima Gold TM-XR) was added and the sealed plates counted in a Wallac Beta counter in top-counting mode at an efficiency of approximately 40%.
Stock solutions were stored at 10 mg/mL in DMSO at −20° C. For each new enzyme preparation, the initial titration performed started at 1 mg/mL, which was prepared by making a 10-fold dilution in DMSO (5 μL to 50 μL). 40 μL of this stock was placed in column 12 of a round-bottomed 96-well microtiter plate. 40 μL DMSO was added to columns 1 to 11 in the same row and ten 3-fold serial dilutions performed, by transferring 20 μL from column 12 to column 11 etc., with 4 mixings before each transfer. No test compound was transferred to from column 2 to column 1. Duplicate aliquots of 1 μL of all 12 dilutions were then transferred to the side walls of a 96-well Bioblock 1.1 mL plate (Fisherbrand) to create two rows.
The results were tabulated and a standard plate background was subtracted and the net count transpose-pasted into a Prism file, with final compound concentrations used in ng/mL. Graphs were created in Prism software, using the average of two determinations, and using Prism's curve fitting program (sigmoidal dose response non-linear regression).
Routine analysis was performed with glucan synthase (GS) prepared from Candida albicans MY1055 by the following procedure: MY1055 was grown in 10 liters YPD medium (10 g yeast extract, 20 g tryptone, 20 g glucose per liter) with vigorous shaking at 30° C., to early stationary phase. Cells were harvested by centrifugation, the pellet was washed and frozen at −70° C. until breakage. Thawed pellets were shaken with an equal volume of breakage buffer (50 mM HEPES pH 7.4, 10% glycerol, 1 mM EDTA, 1 mM PMSF, 1 mM DTT) and 4 times their weight of 0.5 mm acid washed glass beads for 2 hours at 4° C. Extent of breakage was assessed visually at 40× magnification. For C. parapsilosis strains, shaking was extended to 3 hours to maximize breakage. After low speed centrifugation to remove cell debris, the supernatant was centrifuged at 100,000×g for 60 min. to separate membranes plus ribosomes from cytoplasmic components. Membranes were further washed two additional times with breakage buffer using the same centrifugation conditions and finally suspended in breakage buffer at 25 to 30 mg/mL protein (Biorad) for storage at −70° C. Extraction of GS activity from membranes was performed at a protein concentration of 5 mg/mL in extraction buffer (50 mM NaPO4 pH 7.5, 0.1 M KCl, 0.1M Na citrate, 20% glycerol, 5 μM GTP-γ-S, 1 mM DTT, 1 mM PMSF, 3 μg/mL pepstatin) plus 0.25% W1 by gentle mixing at 4° C. for 60 min, followed by centrifugation at 100,000×g for 60 min. After centrifugation, clear supernatant was removed from a pellet consisting of a hard layer usually with small amounts of gelatinous unextracted membranes above it. […]

| SMILES | IC50 |
| --- | --- |
| CC(=O)O[C@@H]1C[C@@]23COC[C@](C)([C@@H]2CC[C@H]2C3=CC(=O)[C@@]3(C)[C@H](C(=O)O)[C@@](C)([C@H](C)C(C)C)CC[C@]23C)[C@H]1OC[C@](C)(N)C(C)C [Example 151, (1S,2R,3R,4aR,6aS,7R,8R,10aR,10bR,12aR)-3-acetoxy-2-[[(2R)-2-amino-2,3-dimethylbutyl]oxy]-8-[(1R)-1,2-dimethylpropyl]-1,6a,8,10a-tetramethyl-6-oxo-1,3,4,6,6a,7,8,9,10,10a,10b,11,12,12a-tetradecahydro-2H-1,4a-(methanooxymethano)chrysene-7-carboxylic acid (fumaric acid salt)] | 17.1 nM |
| CN[C@@](C)(CO[C@H]1[C@H](OC(C)=O)C[C@@]23COC[C@]1(C)[C@@H]2CC[C@H]1C3=CC(=O)[C@@]2(C)[C@H](C(=O)O)[C@@](C)([C@H](C)C(C)C)CC[C@]12C)C(C)C [Example 152, (1S,2R,3R,4aR,6aS,7R,8R,10aR,10bR,12aR)-3-acetoxy-2-[[(2R)-2-methylamino-2,3-dimethylbutyl]oxy]-8-[(1R)-1,2-dimethylpropyl]-1,6a,8,10a-tetramethyl-6-oxo-1,3,4,6,6a,7,8,9,10,10a,10b,11,12,12a-tetradecahydro-2H-1,4a-(methanooxymethano)chrysene-7-carboxylic acid (fumaric acid salt)] | 13.7 nM |
| CC(=O)O[C@@H]1C[C@@]23COC[C@](C)([C@@H]2CC[C@H]2C3=CC(=O)[C@@]3(C)[C@H](C(=O)O)[C@@](C)([C@H](C)C(C)C)CC[C@]23C)[C@H]1OC[C@@](C)(C(C)C)N(C)C [Example 153, (1S,2R,3R,4aR,6aS,7R,8R,10aR,10bR,12aR)-3-acetoxy-2-[[(2R)-2-dimethylamino-2,3-dimethylbutyl]oxy]-8-[(1R)-1,2-dimethylpropyl]-1,6a,8,10a-tetramethyl-6-oxo-1,3,4,6,6a,7,8,9,10,10a,10b,11,12,12a-tetradecahydro-2H-1,4a-(methanooxymethano)chrysene-7-carboxylic acid (fumaric acid salt)] | 26.8 nM |
